Consider four compounds from ChEMBL document CHEMBL3045885, “Evaluation of antileishmanial activities of triglycerides isolated from roots of Moringa stenopetala” (Med Chem Res, 2013).

Values after ≈ are worked out from the molar mass of the structure shown.

Assay [1] deals with Leishmania aethiopica. The experiment in a line: Antileishmanial activity against amastigote form of Leishmania aethiopica MHOM/ET/82/117-82 infected in BALB/c mouse peritoneal exudate macrophages after 5 days. It counts as functional, organism-based. Particulars: MHOM/ET/82/117-82, 120 h.
In assay [2] the test system is Leishmania aethiopica. The experiment in a line: Antileishmanial activity against promastigote form of Leishmania aethiopica MHOM/ET/82/117-82 […] after 72 hr. The assay is classed as functional, organism-based. The following applies: MHOM/ET/82/117-82, 72 h.

As for `CCCCC/C=C\C/C=C\CCCCCCCC(=O)OCC(COC(=O)CCCCCCC/C=C\C/C=C\CCCCC)OC(=O)CCCCCCC/C=C\CCCCCCCC`, the 50% inhibitory concentration (IC50) with Leishmania aethiopica [1] came to 40 µg/mL (≈ 45.4 µM); in the assay with Leishmania aethiopica [2], 0.079 µg/mL (≈ 0.0896 µM).

`CCCCCCCCCCCCCCCCOP(=O)([O-])OCC[N+](C)(C)C` [MILTEFOSINE]: the concentration for half-maximal inhibition (IC50) with Leishmania aethiopica [1] amounted to 0.121 µg/mL (≈ 0.297 µM); with Leishmania aethiopica [2] it was 0.136 µg/mL (≈ 0.334 µM).

As to `C[C@@H]1[C@H](O)[C@@H](C)/C=C/C=C/C=C/C=C/C=C/C=C/C=C/[C@H](O[C@@H]2O[C@H](C)[C@@H](O)[C@H](N)[C@@H]2O)C[C@@H]2O[C@](O)(C[C@@H](O)C[C@@H](O)[C@H](O)CC[C@@H](O)C[C@@H](O)CC(=O)O[C@H]1C)C[C@H](O)[C@H]2C(=O)O` [AMPHOTERICIN B], the half-maximal inhibitory concentration (IC50) with Leishmania aethiopica [1] worked out at 0.032 µg/mL (≈ 0.0346 µM); with Leishmania aethiopica [2] it was 0.004 µg/mL (≈ 0.00433 µM).

`CCCCC/C=C\C/C=C\CCCCCCCC(=O)OC(COC(=O)CCCCCCC/C=C\CCCCCCCC)COC(=O)CCCCCCC/C=C\CCCCCCCC`: the half-maximal inhibitory concentration (IC50) in the assay on Leishmania aethiopica [1] was found to be 26.8 µg/mL (≈ 30.3 µM); in the assay with Leishmania aethiopica [2] it was 242 µg/mL (≈ 274 µM).

Broadly, the IC50 is the midpoint of a concentration-inhibition curve. Read a high IC50 as a need for much substance.
